Here are results for 5 compounds from ChEMBL document CHEMBL3259565 (ACS Med Chem Lett, 2014).

Test [1] has as its target T1, Histone-lysine N-methyltransferase EHMT1 (Homo sapiens, UniProt Q9H9B1).
T1 sequence (Q9H9B1 whole entry): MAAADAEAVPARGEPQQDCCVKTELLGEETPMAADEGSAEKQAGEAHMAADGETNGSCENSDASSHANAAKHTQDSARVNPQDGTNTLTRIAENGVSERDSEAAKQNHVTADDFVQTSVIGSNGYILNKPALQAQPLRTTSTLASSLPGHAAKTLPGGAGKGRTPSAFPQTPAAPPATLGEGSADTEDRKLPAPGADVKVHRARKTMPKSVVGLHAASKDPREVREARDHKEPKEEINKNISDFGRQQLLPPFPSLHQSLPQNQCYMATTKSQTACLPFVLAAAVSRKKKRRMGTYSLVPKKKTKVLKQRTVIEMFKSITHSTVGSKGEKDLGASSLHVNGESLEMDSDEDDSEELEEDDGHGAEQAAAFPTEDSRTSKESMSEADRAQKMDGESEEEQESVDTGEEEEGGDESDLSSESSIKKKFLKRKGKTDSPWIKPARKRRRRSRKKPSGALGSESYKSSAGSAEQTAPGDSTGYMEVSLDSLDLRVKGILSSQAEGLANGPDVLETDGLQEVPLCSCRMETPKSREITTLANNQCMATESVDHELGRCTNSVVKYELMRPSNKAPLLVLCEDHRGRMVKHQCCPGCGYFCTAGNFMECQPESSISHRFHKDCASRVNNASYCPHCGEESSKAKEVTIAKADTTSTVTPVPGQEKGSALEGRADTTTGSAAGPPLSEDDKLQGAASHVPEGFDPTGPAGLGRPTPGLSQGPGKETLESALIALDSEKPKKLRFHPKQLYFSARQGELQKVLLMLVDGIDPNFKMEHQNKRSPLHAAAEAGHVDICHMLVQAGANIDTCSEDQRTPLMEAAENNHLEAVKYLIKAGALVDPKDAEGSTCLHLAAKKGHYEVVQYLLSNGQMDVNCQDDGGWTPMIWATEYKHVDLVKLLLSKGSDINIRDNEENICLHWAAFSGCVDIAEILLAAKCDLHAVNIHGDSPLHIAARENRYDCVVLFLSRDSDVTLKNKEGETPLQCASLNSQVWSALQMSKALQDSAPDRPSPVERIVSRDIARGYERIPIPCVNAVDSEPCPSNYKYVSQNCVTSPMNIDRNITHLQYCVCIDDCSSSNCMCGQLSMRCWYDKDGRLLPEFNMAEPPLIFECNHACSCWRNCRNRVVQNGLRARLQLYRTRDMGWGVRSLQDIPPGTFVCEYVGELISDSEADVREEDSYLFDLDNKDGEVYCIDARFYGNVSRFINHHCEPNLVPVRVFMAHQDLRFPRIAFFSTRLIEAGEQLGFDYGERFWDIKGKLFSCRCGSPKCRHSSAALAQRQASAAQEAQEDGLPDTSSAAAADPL
Kind of test: Inhibition of methyltransferase activity of EHMT1 (unknown origin)-mediated dimethylation of a biotinylated histone H3 peptide at lysine-9 by FRET-based LANCE ultra G9a assay. (In general: TR-FRET usually uses a lanthanide donor and a delayed reading to cut background.)

For test [2], the target named is T2, Histone-lysine N-methyltransferase EHMT2 (Homo sapiens, UniProt Q96KQ7).
T2 sequence (Q96KQ7 whole entry): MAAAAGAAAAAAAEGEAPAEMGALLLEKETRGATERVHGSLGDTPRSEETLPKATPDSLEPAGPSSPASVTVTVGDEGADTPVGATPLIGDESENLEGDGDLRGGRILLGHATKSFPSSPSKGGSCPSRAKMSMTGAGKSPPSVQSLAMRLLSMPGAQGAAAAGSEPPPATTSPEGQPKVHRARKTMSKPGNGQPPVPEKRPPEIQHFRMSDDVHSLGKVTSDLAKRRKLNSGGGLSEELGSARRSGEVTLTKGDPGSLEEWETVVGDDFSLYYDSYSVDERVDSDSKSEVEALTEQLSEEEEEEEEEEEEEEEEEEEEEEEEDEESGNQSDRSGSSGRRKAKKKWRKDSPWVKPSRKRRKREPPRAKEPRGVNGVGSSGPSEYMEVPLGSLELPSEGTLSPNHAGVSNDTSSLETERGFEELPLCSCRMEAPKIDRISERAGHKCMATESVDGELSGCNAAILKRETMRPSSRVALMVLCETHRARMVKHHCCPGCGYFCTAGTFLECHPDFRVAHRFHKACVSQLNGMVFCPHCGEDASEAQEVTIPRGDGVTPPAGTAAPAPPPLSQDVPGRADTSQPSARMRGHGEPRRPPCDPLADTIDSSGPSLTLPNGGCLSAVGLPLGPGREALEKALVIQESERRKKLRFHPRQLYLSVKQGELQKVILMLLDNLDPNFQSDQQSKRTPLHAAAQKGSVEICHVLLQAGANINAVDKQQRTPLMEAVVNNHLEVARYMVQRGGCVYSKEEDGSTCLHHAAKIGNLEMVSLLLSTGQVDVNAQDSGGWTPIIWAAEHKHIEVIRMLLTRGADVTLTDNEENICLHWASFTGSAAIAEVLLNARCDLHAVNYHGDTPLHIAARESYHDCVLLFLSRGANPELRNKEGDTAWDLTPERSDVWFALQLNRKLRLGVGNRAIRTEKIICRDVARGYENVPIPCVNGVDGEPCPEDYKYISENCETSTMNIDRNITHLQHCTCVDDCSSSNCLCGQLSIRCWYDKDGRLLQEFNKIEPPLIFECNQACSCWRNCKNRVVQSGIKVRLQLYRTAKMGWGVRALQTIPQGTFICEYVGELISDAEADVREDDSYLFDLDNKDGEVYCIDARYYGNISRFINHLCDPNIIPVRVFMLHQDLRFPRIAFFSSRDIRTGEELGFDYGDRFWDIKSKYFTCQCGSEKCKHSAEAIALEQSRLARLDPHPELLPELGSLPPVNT
Kind of test: Inhibition of methyltransferase activity of EHMT2 (unknown origin)-mediated dimethylation of a biotinylated histone H3 peptide at lysine-9 by FRET-based LANCE ultra G9a assay.

The target of test [3] is T3, Histone-lysine N-methyltransferase EHMT1 (Homo sapiens) (UniProt Q9H9B1).
T3 sequence (whole entry): T1 sequence (Q9H9B1 whole entry)
As to the kind of experiment: Non-competitive inhibition of methyltransferase activity of EHMT1 (unknown origin).

Test [4] deals with T4, Histone-lysine N-methyltransferase SETD7 (Homo sapiens) (UniProt Q8WTS6).
T4 sequence (whole entry): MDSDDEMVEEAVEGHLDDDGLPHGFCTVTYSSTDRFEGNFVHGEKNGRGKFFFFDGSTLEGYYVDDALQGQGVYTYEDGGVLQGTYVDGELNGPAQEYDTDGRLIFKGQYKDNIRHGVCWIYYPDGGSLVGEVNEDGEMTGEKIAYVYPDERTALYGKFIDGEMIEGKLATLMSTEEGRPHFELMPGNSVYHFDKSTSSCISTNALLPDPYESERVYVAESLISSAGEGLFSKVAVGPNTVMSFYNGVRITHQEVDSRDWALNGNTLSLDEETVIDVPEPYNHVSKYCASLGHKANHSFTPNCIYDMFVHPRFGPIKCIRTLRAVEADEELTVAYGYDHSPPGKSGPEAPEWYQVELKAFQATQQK
Kind of test: Inhibition of SET7/9 (unknown origin) at 200 uM.

For test [5], the target named is T5, DNA (cytosine-5)-methyltransferase 1 (Homo sapiens, UniProt P26358). As to the kind of experiment: Inhibition of DNMT1 (unknown origin) at 200 uM.
The target of test [6] is T6, Histone-lysine N-methyltransferase EHMT2 (Homo sapiens) (UniProt Q96KQ7).
T6 sequence (whole entry): T2 sequence (Q96KQ7 whole entry)
As to the kind of experiment: Non-competitive inhibition of methyltransferase activity of EHMT2 (unknown origin).

In test [7] the target is Protein arginine N-methyltransferase 1 (Homo sapiens) (UniProt Q99873). As to the kind of experiment: Inhibition of PRMT1 (unknown origin) at 200 uM.
Test [8] deals with T3, Histone-lysine N-methyltransferase EHMT1 (Homo sapiens). Kind of test: Inhibition of methyltransferase activity of EHMT1 (unknown origin)-mediated dimethylation of a biotinylated histone H3 peptide at lysine-9 at 100 uM by FRET-based LANCE ultra G9a assay.
Test [9] addresses T5, DNA (cytosine-5)-methyltransferase 1. Kind of test: Inhibition of DNMT1 (unknown origin).

Calls of active or inactive are those of the source. The rule behind the calls is not given here.

T5 sequence (P26358 whole entry): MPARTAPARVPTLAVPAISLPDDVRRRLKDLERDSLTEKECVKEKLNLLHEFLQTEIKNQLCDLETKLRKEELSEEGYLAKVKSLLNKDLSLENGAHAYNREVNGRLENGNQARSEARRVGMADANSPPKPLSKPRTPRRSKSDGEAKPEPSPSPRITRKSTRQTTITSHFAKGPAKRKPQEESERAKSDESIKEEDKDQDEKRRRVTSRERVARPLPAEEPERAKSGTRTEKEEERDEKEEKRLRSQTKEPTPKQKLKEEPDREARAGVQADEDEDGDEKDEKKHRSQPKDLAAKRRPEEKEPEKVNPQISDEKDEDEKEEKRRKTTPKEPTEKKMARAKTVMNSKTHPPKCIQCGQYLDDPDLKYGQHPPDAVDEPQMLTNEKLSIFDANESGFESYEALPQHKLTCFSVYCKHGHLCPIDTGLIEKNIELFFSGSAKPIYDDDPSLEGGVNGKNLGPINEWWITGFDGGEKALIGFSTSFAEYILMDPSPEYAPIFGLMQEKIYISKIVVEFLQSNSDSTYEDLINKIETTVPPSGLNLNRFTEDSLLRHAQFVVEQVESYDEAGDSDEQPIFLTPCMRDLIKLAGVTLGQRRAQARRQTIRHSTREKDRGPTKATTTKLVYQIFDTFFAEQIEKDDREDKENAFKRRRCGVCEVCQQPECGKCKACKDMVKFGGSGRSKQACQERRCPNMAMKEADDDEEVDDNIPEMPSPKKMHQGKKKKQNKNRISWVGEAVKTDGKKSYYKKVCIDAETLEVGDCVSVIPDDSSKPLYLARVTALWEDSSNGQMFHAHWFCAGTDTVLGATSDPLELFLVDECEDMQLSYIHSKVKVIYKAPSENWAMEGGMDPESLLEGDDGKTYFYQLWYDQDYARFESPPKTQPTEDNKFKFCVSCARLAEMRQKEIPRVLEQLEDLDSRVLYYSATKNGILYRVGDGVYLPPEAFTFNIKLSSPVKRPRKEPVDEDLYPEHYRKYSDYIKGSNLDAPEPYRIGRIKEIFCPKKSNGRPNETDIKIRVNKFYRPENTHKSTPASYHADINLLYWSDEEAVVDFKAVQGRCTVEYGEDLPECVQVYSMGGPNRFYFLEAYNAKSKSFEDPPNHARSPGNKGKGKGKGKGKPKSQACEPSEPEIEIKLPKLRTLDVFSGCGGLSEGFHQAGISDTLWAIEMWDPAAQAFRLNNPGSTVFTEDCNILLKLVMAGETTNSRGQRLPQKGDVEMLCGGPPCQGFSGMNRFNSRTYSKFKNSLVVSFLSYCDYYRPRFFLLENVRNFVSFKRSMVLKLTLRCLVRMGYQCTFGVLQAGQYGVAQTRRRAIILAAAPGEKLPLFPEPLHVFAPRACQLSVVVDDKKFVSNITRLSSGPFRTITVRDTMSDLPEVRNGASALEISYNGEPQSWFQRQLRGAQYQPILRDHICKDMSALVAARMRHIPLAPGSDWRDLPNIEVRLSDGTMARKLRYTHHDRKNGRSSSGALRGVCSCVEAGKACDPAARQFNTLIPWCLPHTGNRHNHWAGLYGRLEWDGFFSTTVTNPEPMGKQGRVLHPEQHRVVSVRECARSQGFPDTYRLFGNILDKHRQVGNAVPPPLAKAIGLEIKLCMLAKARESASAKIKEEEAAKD
Chain of Protein arginine N-methyltransferase 1 (Homo sapiens) (Q99873 whole entry, looked up): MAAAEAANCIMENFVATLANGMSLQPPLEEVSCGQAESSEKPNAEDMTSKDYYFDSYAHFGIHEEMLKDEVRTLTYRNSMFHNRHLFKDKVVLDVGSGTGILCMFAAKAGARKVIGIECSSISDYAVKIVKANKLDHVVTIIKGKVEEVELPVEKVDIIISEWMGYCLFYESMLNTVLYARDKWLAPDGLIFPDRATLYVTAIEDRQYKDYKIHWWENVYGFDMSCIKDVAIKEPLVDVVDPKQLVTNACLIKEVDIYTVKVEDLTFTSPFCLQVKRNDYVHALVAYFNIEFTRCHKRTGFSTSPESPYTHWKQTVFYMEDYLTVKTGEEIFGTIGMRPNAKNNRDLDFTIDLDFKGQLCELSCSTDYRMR

In general, IC50 refers to the concentration needed to halve the response being measured. A lower IC50 goes with higher potency. In test [1], `Nc1ncnc2c1ncn2[C@@H]1O[C@H](C[C@@H](N)CC[C@H](N)C(=O)O)[C@@H](O)[C@H]1O` [SINEFUNGIN] registered an IC50 of 513 µM.
The term inhibition denotes the change of the read-out against control, counted positive when it falls. With `CCCCC[C@H]1O[C@@H](n2cnc3c(N)ncnc32)[C@H](O)[C@@H]1O`, the figures for the half-inhibitory concentration (IC50) in test [2] and in test [1] were 103 µM and 87 µM, respectively. Besides, the inhibition entry in [3] and in test [6] was “Active” throughout. For the same compound, the inhibition entry in test [4], in test [5] and in test [7] was “inactive” each time. The compound further registered an inhibition in test [8] greater than 40%.
On to `Nc1ncnc2c1ncn2[C@@H]1O[C@H](CCCc2ccccc2)[C@@H](O)[C@H]1O`, for which the IC50 in [2] turned out to be 190 µM; in [1], 235 µM. The compound further showed an inhibition in test [8] greater than 40%.
For `COc1ccc(CC(N)C[C@H]2O[C@@H](n3cnc4c(N)ncnc43)[C@H](O)[C@@H]2O)cc1OC` (stereo partly drawn) the same measures were 157 µM, 147 µM and greater than 40%.
As for `Nc1ncnc2c1ncn2[C@@H]1O[C@H](CC(N)CC2CCCCC2)[C@@H](O)[C@H]1O` (stereo partly drawn), the half-inhibitory concentration (IC50) is 179 µM in test [9], 1.6 µM in test [2] and 1.5 µM in [1]. Moreover, the inhibition result in test [3] and in [6] was “Active” each time. For the same compound, the inhibition entry in test [4] and in test [7] was “inactive” in each case. This compound also showed an inhibition in test [8] greater than 40%.
